Laboratory results reported in ChEMBL document CHEMBL3588854, “Synthesis of 5-isoxazol-3-yl-pyrimidine nucleosides as potential antileishmanial agents” (Bioorg Med Chem Lett, 2015).
Active and inactive are the calls of the source. The rule behind the calls is not given here.

What follows are compounds tested on Leishmania donovani (assay: Antileishmanial activity against amastigote stage of Leishmania donovani MHOM/ET/67/HU3 infected in mouse RAW264.7 cells assessed as inhibition of parasite growth after 48 hrs by SYBR green I incorporation assay). Conditions: not given.
Format: functional, organism-based

SMILES | growth inhibition (GI)
CC(=O)OC[C@H]1O[C@@H](n2cc(-c3cc(-c4ccccc4)on3)c(=O)[nH]c2=O)C[C@@H]1OC(C)=O | inactive
CC(=O)OC[C@H]1O[C@@H](n2cc(-c3cc(-c4ccccc4)on3)c(=O)[nH]c2=O)[C@H](OC(C)=O)[C@@H]1OC(C)=O | inactive
CC(=O)OC[C@H]1O[C@@H](n2cc(-c3cc(-c4ccc(Br)cc4)on3)c(=O)[nH]c2=O)C[C@@H]1OC(C)=O | inactive
CC(=O)OC[C@@H]1C=C[C@H](n2cc(-c3cc(-c4ccccc4)on3)c(=O)[nH]c2=O)O1 | inactive
CC(=O)OC[C@H]1O[C@@H](n2cc(-c3cc(-c4ccccc4)on3)c(=O)[nH]c2=O)C[C@@H]1N=[N+]=[N-] | inactive
CC(=O)OC[C@H]1O[C@@H](n2cc(-c3cc(CBr)on3)c(=O)[nH]c2=O)C[C@@H]1OC(C)=O | inactive

Same assay, conditions: MHOM/ET/67/HU3, RAW264.7, 48 h

SMILES | IC50 [nM]
CC(=O)OC[C@H]1O[C@@H](n2cc(-c3cc(-c4ccc(F)cc4)on3)c(=O)[nH]c2=O)C[C@@H]1N=[N+]=[N-] | > 12500
O=c1[nH]c(=O)n([C@@H]2O[C@H](CO)[C@@H](O)[C@H]2O)cc1-c1cc(-c2ccc(F)cc2)on1 | 1470
O=c1[nH]c(=O)n([C@H]2C=C[C@@H](CO)O2)cc1-c1cc(-c2ccccc2)on1 | 4560
CC(=O)OC[C@H]1O[C@@H](n2cc(-c3cc(-c4ccc(C)cc4)on3)c(=O)[nH]c2=O)C[C@@H]1OC(C)=O | 1700
CCCCCCCCc1cc(-c2cn([C@H]3C[C@H](O)[C@@H](CO)O3)c(=O)[nH]c2=O)no1 | > 12500
CC(=O)OC[C@H]1O[C@@H](n2cc(-c3cc(CO)on3)c(=O)[nH]c2=O)C[C@@H]1N=[N+]=[N-] | > 12500
CCCCCCCCc1cc(-c2cn([C@H]3C[C@H](OC(C)=O)[C@@H](COC(C)=O)O3)c(=O)[nH]c2=O)no1 | 20900
CC(=O)OC[C@H]1O[C@@H](n2cc(-c3cc(-c4ccc(F)cc4)on3)c(=O)[nH]c2=O)[C@H](OC(C)=O)[C@@H]1OC(C)=O | 780
CC(=O)OC[C@H]1O[C@@H](n2cc(-c3cc(-c4ccc(F)cc4)on3)c(=O)[nH]c2=O)C[C@@H]1OC(C)=O | 700
CCCCCCCCCCCCCCCCOP(=O)([O-])OCC[N+](C)(C)C [MILTEFOSINE] | 5750
O=c1[nH]c(=O)n([C@H]2C[C@H](O)[C@@H](CO)O2)cc1-c1cc(-c2ccc(F)cc2)on1 | 580
Nc1nc(=O)n([C@H]2C[C@H](O)[C@@H](CO)O2)cc1-c1cc(-c2ccccc2)on1 | 610
Cc1ccc(-c2cc(-c3cn([C@H]4C[C@H](O)[C@@H](CO)O4)c(=O)[nH]c3=O)no2)cc1 | 610
CC(=O)OC[C@H]1O[C@@H](n2cc(-c3cc(CO)on3)c(N)nc2=O)C[C@@H]1OC(C)=O | 3130
O=c1[nH]c(=O)n([C@H]2C[C@H](O)[C@@H](CO)O2)cc1-c1cc(-c2ccccc2)on1 | 760
CC(=O)OC[C@H]1O[C@@H](n2cc(-c3cc(-c4ccccc4)on3)c(N)nc2=O)C[C@@H]1OC(C)=O | 1610
[N-]=[N+]=N[C@H]1C[C@H](n2cc(-c3cc(CO)on3)c(=O)[nH]c2=O)O[C@@H]1CO | 490
O=c1[nH]c(=O)n([C@H]2C[C@H](O)[C@@H](CO)O2)cc1-c1cc(CO)on1 | 730
C[C@@H]1[C@H](O)[C@@H](C)/C=C/C=C/C=C/C=C/C=C/C=C/C=C/[C@H](O[C@@H]2O[C@H](C)[C@@H](O)[C@H](N)[C@@H]2O)C[C@@H]2O[C@](O)(C[C@@H](O)C[C@@H](O)[C@H](O)CC[C@@H](O)C[C@@H](O)CC(=O)O[C@H]1C)C[C@H](O)[C@H]2C(=O)O [AMPHOTERICIN B] | 310
CC(=O)OC[C@H]1O[C@@H](n2cc(-c3cc(CO)on3)c(=O)[nH]c2=O)C[C@@H]1OC(C)=O | 3390
